Where a name gives a salt, the structure may show the parent alone.

This series can be described thus: Solubility of Cefmenoxime hydrochloride in organic solvents. It is filed as physicochemical. The text has this:
According to the instant invention, after the treatment of step 1), these impurities can be separated from Cefmenoxime hydrochloride.
Treating Cefmenoxime hydrochloride crude directly with a good-poor solvent precipitation method can not achieve the desired purity.

As for `CO/N=C(\C(=O)N[C@@H]1C(=O)N2C(C(=O)O)=C(CSc3nnnn3C)CS[C@H]12)c1csc(N)n1` [Cefmenoxime hydrochloride, (6R,7R)-7-[(Z)-2-(2-amino-thiazol-4-yl)-2-methoxyiminoacetylamino]-3-[[(1-methyl-1H-tetrazol-5-yl)-sulfanyl]methyl]-8-oxo-5-thia-1-azabicyclo[4.2.0]oct-2-ene-2-carboxylic acid hydrochloride (2:1)], the solubility in acetone result (solvent acetone) is on record as “almost insoluble”. For the same compound, for the setting “solvent ethanol”, the solubility in ethanol result was “almost insoluble”. Besides, the “solubility in ethyl acetate” value (solvent ethyl acetate) is “almost insoluble”. Moreover, the solubility in formamide entry (solvent formamide) was “soluble”. Moreover, the solubility in methanol result (solvent methanol) was “slightly soluble”.
